Laboratory results as given in the kinase profiling compilation of Christmann-Franck et al. (2016).

How the values were obtained:
Test in all cases: radiometric filter-binding kinase assay, Kinase HotSpot
Conditions in all cases: compound 0.5 µM; ATP 10 µM
[1] = system: PRKCQ (human), Q04759 [P330L]
[2] = system: FLT4 (human), P35916 [Q890H]
[3] = system: MKNK1 (human), Q9BUB5 [T385D; 165-205 del]
[4] = system: MAP2K6 (human), P52564 [S207E/T211E]
Chain of MAP2K6 (human), P52564 [S207E/T211E] (P52564 whole entry S207E/T211E, looked up): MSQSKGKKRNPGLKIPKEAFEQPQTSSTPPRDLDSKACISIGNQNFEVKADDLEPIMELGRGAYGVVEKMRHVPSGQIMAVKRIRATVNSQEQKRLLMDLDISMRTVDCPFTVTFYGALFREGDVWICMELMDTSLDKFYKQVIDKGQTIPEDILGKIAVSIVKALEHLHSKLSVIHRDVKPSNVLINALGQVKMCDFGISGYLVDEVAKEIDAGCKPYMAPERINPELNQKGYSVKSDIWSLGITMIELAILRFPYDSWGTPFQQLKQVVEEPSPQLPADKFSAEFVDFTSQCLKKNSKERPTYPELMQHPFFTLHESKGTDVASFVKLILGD

Chain of MKNK1 (human), Q9BUB5 [T385D; 165-205 del] (Q9BUB5 whole entry, looked up, stated change not applied): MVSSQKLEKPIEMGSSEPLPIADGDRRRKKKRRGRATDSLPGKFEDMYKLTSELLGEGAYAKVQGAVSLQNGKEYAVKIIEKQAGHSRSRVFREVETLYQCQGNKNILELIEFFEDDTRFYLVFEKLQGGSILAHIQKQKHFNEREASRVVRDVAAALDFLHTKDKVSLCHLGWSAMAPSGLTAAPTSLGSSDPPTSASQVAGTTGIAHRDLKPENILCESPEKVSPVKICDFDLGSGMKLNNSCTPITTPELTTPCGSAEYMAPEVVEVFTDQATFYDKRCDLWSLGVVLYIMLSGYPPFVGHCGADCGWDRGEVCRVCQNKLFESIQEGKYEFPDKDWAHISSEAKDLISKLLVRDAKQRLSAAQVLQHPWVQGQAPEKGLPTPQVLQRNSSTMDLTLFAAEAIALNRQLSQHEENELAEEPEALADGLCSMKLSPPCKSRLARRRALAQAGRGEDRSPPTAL
Chain of PRKCQ (human), Q04759 [P330L] (Q04759 whole entry P330L, looked up): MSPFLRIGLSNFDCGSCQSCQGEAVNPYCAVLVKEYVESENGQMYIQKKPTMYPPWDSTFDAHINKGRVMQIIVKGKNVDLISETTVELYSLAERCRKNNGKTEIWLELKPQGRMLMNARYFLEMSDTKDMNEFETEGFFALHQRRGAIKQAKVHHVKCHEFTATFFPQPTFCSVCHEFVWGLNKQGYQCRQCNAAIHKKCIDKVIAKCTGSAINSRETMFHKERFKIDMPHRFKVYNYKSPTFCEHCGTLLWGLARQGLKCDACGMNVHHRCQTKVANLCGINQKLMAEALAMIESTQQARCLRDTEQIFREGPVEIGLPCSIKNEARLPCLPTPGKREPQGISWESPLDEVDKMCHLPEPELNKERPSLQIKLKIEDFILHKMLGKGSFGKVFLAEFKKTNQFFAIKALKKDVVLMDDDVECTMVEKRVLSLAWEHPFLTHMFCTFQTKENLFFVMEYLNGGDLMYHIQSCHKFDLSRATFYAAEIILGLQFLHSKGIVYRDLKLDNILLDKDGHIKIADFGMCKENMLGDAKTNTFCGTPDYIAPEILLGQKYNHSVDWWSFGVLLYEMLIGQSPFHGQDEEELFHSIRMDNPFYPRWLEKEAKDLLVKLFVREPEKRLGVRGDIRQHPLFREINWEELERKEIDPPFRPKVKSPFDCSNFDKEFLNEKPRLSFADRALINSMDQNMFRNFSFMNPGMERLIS
Chain of FLT4 (human), P35916 [Q890H] (P35916 whole entry, looked up, stated change not applied): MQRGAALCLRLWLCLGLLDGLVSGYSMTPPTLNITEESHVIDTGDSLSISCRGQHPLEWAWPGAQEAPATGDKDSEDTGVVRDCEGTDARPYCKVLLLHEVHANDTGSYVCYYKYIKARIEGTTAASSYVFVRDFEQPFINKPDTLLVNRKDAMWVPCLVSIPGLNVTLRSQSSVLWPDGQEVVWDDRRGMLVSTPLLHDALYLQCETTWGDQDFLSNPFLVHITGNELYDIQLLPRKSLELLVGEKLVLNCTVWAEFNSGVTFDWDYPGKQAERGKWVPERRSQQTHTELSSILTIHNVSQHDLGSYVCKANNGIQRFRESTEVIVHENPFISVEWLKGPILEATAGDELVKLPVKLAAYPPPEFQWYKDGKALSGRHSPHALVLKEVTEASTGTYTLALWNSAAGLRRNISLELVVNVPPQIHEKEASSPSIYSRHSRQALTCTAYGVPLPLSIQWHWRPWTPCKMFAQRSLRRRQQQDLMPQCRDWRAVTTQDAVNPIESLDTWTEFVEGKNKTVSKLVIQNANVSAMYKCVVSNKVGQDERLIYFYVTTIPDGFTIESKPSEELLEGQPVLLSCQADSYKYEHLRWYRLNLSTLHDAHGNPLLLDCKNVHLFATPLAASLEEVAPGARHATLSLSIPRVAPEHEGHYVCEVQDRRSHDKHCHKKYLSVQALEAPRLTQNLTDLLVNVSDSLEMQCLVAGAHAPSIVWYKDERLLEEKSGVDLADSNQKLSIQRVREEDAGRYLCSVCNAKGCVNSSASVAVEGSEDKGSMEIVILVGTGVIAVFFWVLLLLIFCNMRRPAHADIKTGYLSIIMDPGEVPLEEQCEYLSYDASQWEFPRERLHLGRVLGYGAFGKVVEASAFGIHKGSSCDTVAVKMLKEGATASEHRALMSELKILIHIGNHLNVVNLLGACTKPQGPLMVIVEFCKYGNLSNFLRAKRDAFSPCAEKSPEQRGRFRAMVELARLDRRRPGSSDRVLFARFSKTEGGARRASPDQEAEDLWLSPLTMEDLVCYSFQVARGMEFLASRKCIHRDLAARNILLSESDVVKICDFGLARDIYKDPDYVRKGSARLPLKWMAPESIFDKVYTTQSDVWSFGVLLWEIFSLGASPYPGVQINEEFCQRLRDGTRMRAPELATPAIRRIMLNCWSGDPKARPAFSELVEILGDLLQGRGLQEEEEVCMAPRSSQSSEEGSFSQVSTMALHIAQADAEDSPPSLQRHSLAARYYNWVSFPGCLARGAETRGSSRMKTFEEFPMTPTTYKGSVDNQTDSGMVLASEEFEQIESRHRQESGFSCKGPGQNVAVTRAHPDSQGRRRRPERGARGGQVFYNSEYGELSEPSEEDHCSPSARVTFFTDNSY

residual activity [1] [%]	residual activity [2] [%]	residual activity [3] [%]	residual activity [4] [%]	Compound
98.9	98.1	115	89.9	COc1ccc(OC)c2c(=S)c3ccccc3[nH]c12
98	105	113	87.4	COc1ccc(COc2ccc(Cc3cnc(N)nc3N)cc2OC)cc1
105	12.1	75.4	86.2	CCN(CC)CCNC(=O)c1c(C)[nH]c(/C=C2\C(=O)Nc3ccc(Cl)cc32)c1C
91.2	64.4	64.7	93.6	c1ccc(-c2cnc(Nc3ccc(OCCN4CCCC4)cc3)s2)cc1
94.6	90.9	102	103	CC[n+]1c(/C=C/N(C)c2ccccc2)n(-c2ccccc2)c2ccc(-c3nc4ccccc4s3)cc21
98.2	77.8	76.9	98.3	O=C1Cc2c([nH]c3ccc([N+](=O)[O-])cc23)-c2ccccc2N1
99.1	53	99.6	83.5	O=C1Nc2ccccc2/C1=C1\Nc2ccccc2\C1=N/O
107	73.8	93.2	94.9	COc1cc2nccc(Oc3ccc(NC(=S)NC(=O)c4ccccc4C)cc3)c2cc1OC
103	90.8	95.4	92.4	COc1cccc(-c2cc(=O)c3ccccc3o2)c1N
108	82.6	89.8	87	COc1cc2c(cc1OC)-c1[nH]nc(Nc3cccc(F)c3)c1C2
119	80.7	99.1	92.5	CC(C)[C@H](CO)Nc1nc(Nc2cc(N)cc(Cl)c2)c2ncn(C(C)C)c2n1
105	104	102	86.6	Oc1cccc(-c2nc(N3CCOCC3)c3oc4ncccc4c3n2)c1
92.8	108	96.5	91.2	O=C1NC(=O)/C(=C\c2ccc3nccnc3c2)S1
121	123	115	110	CCc1nc(-c2ccc(OC)cc2)[nH]c1-c1ccncc1
99.8	95.9	77.2	94	N#CC(C#N)=C(N)/C(C#N)=C/c1ccc(O)cc1
103	100	90	96.5	Cc1ccc(NC(=O)c2ccc(CN3CCN(C)CC3)cc2)cc1Nc1nc(-c2cccnc2)cs1
99.5	112	102	94.2	CC(=O)c1ccc(N2CCOCC2)cc1O
112	104	99.5	107	O=c1cc(-c2cccc3c2Sc2ccccc2S3)oc(N2CCOCC2)c1
116	79.2	112	96.5	CCOC(=O)c1c(C)[nH]c(/C=C2\C(=O)Nc3ccccc32)c1C
12.7	114	100	109	CN(C)C[C@H]1CCn2c(c(C3=C(c4cn(C)c5ccccc45)C(=O)NC3=O)c3ccccc32)C1
119	91.5	93.9	79.4	O=c1c(-c2ccc(F)cc2)c(-c2ccncc2)[nH]n1-c1ccc(Cl)cc1
111	91.3	97.1	80.5	CSc1nc(-c2ccc(F)cc2)c(-c2ccnc(NC(C)c3ccccc3)c2)[nH]1 (stereo not given)
110	97	55.2	94.5	CNc1cc2c(Nc3cccc(Br)c3)ncnc2cn1
66.8	71.2	101	89	CC(C)(C)c1nc2c3ccc(F)cc3c3c(=O)[nH]ccc3c2[nH]1
72	93.7	95.2	87.2	CC(=O)O/N=C1\C(=C2\C(=O)Nc3cc(Br)ccc32)Nc2ccccc21
123	101	98.9	94	Oc1ccc(Nc2nc(-c3ccc(Cl)cc3)cs2)cc1
87.8	107	96.7	108	O=C(Nc1cccc(Nc2cc(Nc3cccc(C(F)(F)F)c3)ncn2)c1)C1CC1

residual activity [1] [%]	residual activity [2] [%]	residual activity [3] [%]	residual activity [4] [%]	Compound
91.4	92.6	98.7	88.9	CC(C)n1cnc2c(Nc3cccc(Cl)c3)nc(NCCO)nc21
111	98.2	101	97.3	CCCC(=O)Oc1ccc2[nH]c(C(=O)c3cc4ccccc4[nH]3)cc2c1
97	115	80.3	91.1	Cc1cc2ncc(-c3ccccc3)nc2cc1C
117	82.5	60.3	103	O=C(O)c1ccc2c3c1cccc3c(=O)n1c3ccccc3nc21
103	94.6	89.7	102	COc1cc2c(N3CCN(C(=O)Nc4ccc(OC(C)C)cc4)CC3)ncnc2cc1OCCCN1CCCCC1
97.3	103	110	92.7	CC(C)c1nn(-c2c(Cl)cccc2Cl)c2nc(Cc3ccc(OCCO)cc3)nc(O)c12
105	50.8	102	98.2	O=C1Nc2cc(Br)ccc2/C1=C1/Nc2ccccc2/C1=N\O
100	86.8	98.6	94.9	Cn1sc(=O)n(Cc2ccccc2)c1=O
117	104	107	96.2	O=c1cc(N2CCNCC2)oc2c(-c3ccccc3)cccc12
92.9	22.3	95.3	79.7	O=C1Nc2ccccc2/C1=C1/Nc2ccccc2/C1=N\OCCC(O)CO (stereo not given)
127	110	79.8	105	CC(C)[C@H](CO)Nc1nc(Nc2cccc(Cl)c2)c2ncn(C(C)C)c2n1
83.8	108	96.2	92.9	c1ccc(-c2n[nH]c3c2oc2ccccc23)cc1
100	43	75.1	96.9	CNC(=O)c1cc(Oc2ccc(NC(=O)Nc3ccc(Cl)c(C(F)(F)F)c3)cc2)ccn1
96.9	91.2	98.4	85.9	COc1ccc(CNC(=O)Nc2ncc([N+](=O)[O-])s2)cc1
82.3	44.9	93.5	93.2	Cc1cc(Nc2nc(-c3ccccc3)nc3ccccc23)n[nH]1
105	99.3	80.8	88.7	COc1cc2ncnc(Nc3cccc(Cl)c3)c2cc1OC
103	92.9	75.2	87.6	Nc1ncnc2[nH]nc(Nc3ccc(F)cc3)c12
101	90.4	104	94.9	COc1cc2ncc(-c3ccccc3)nc2cc1OC
104	99.8	103	97.5	N#C/C(=C(/N)Sc1ccc(N)cc1)c1ccccc1C(F)(F)F
85.9	92.2	41.9	90.1	COc1cc2ncnc(Nc3ccc(F)c(Cl)c3)c2cc1OCCCN1CCOCC1
98.7	102	103	110	O=C1NC(=O)c2cc(Nc3ccc(F)cc3)c(Nc3ccc(F)cc3)cc21
77.2			94.2	C#Cc1cccc(Nc2ncnc3cc(OCCOC)c(OCCOC)cc23)c1
93.1		102	98.3	Cc1ccc(Nc2nccc(N(C)c3ccc4c(C)n(C)nc4c3)n2)cc1S(N)(=O)=O
89.9		91.8	95.6	O=S(=O)(c1cccc2cnccc12)N1CCCNCC1
63.5		99.3	75.9	CCN(CC)CCNC(=O)c1c(C)[nH]c(/C=C2\C(=O)Nc3ccc(F)cc32)c1C
	89.8	106	98.1	N#Cc1c(NC(=O)c2cccc3ccccc23)sc2c1CCCC2

Compound	residual activity [1] [%]	residual activity [2] [%]	residual activity [3] [%]	residual activity [4] [%]
COc1ccc2c(c[n+](C)c3c4cc5c(cc4ccc23)OCO5)c1OC	99.9	97.6	102	95
